This assay concerns MSH3. Kind of assay: QPCR assay for levels of MSH3 upon compound treatment in HEK293T or AD293 cells (fold-change of MSH3 transcript, EC50 of MSH3 downregulation; total MSH3 exons 13/14, exons 20/21; Table 8). The assay is classed as cell-based. The note with it: for mrna remaining at 1 µM / mrna remaining at 10 µM: Homo sapiens, fold-change of the MSH3 transcript, normalized to GAPDH; for mrna remaining at 1 µM: 1 μM compound; for mrna remaining at 10 µM: 10 μM compound; for EC50: EC50 of MSH3 downregulation, XtalPi. The method, then: HEK293T or AD293 cells were treated with Compound 274 at 1 μM and […]. RNA, cDNA and qPCR was prepared using TaqMan Cells-to-CT Express kit (ThermoFisher Scientific). Taqman assays (ThermoFisher Scientific) were used for quantification of total MSH3 exons 13/14 (cat #4351372, ID #: Hs00988993_ml), total MSH3 exons 20/21 (cat #4351372, ID #: Hs00989000_ml), exon 13/PE14A (Fwd: 5′-[…]; Rev: 5′-[…]; Probe: 5′-[…]) and exon 20/PE21A (Fwd: 5′-[…]; Rev: 5′-[…]; Probe: 5′-[…]) mRNA expression. Taqman GAPDH (cat #4448489, ID #: Hs02758991_g1) was used as a reference for data normalization.

Regarding `Cc1nn(C)nc1-c1cc(C#N)c2c(c1)C(=O)N(c1ccc(O[C@H]3C[C@]4(C)CC[C@](C)(C3)N4)nn1)C2` [Compound 681, 6-(2,5-dimethyl-2H-1,2,3-triazol-4-yl)-2-(6-(((1R,3s,5S)-1,5-dimethyl-8-azabicyclo[3.2.1]octan-3-yl)oxy)pyridazin-3-yl)-1-oxoisoindoline-4-carbonitrile], the mrna remaining at 1 µM is 76% and the mrna remaining at 10 µM turned out to be 8%.
Consider `Cc1nn(C)nc1-c1cnc2c(c1)C(=O)N(c1ccc(N(C)C3CC(C)(C)NC(C)(C)C3)nn1)C2` [Compound 180, 3-(2,5-dimethyl-2H-1,2,3-triazol-4-yl)-6-(6-(methyl(2,2,6,6-tetramethylpiperidin-4-yl)amino)pyridazin-3-yl)-6,7-dihydro-5H-pyrrolo[3,4-b]pyridin-5-one], for which the response was half-maximal at 1120 nM (EC50), the mrna remaining at 1 µM came to 50% and the mrna remaining at 10 µM was 8%.
Regarding `Cc1nn(C)cc1-c1cc(Cl)c2c(c1)C(=O)N(c1ccc(O[C@H]3C[C@]4(C)CC[C@](C)(C3)N4)nn1)C2` [Compound 447, 4-chloro-6-(1,3-dimethyl-1H-pyrazol-4-yl)-2-(6-(((1R,3s,5S)-1,5-dimethyl-8-azabicyclo[3.2.1]octan-3-yl)oxy)pyridazin-3-yl)isoindolin-1-one], the mrna remaining at 1 µM came out at 94%.
Consider `Cc1nn(C)nc1-c1cc(F)c2c(c1)C(=O)N(c1ccc(N3CC4CCC(C3)N4)nn1)C2` [Compound 658, 2-(6-(3,8-diazabicyclo[3.2.1]octan-3-yl)pyridazin-3-yl)-6-(2,5-dimethyl-2H-1,2,3-triazol-4-yl)-4-fluoroisoindolin-1-one], for which the mrna remaining at 1 µM was determined as 132% and the mrna remaining at 10 µM amounted to 51%.
For the compound `Cc1nn(C)nc1-c1cnc2c(c1)C(=O)N(c1ccc(N3C[C@H]4CC[C@@H](C3)N4)nn1)C2` [Compound 568, 6-(6-((1R,5S)-3,8-diazabicyclo[3.2.1]octan-3-yl)pyridazin-3-yl)-3-(2,5-dimethyl-2H-1,2,3-triazol-4-yl)-6,7-dihydro-5H-pyrrolo[3,4-b]pyridin-5-one], the mrna remaining at 1 µM is 77% and the mrna remaining at 10 µM turned out to be 46%.
In the case of `Cn1ncc(-c2cc3c(c(Cl)n2)CN(c2ccc(O[C@H]4C[C@]5(C)CC[C@](C)(C4)N5)nn2)C3=O)n1` [Compound 106, 4-chloro-2-(6-(((1R,3s,5S)-1,5-dimethyl-8-azabicyclo[3.2.1]octan-3-yl)oxy)pyridazin-3-yl)-6-(2-methyl-2H-1,2,3-triazol-4-yl)-2,3-dihydro-1H-pyrrolo[3,4-c]pyridin-1-one], the mrna remaining at 1 µM stood at 121% and the mrna remaining at 10 µM was 130%.
The like results for `Cc1nn(C)nc1-c1cnc2c(c1)C(=O)N(c1ccc(N3CCC4(CCCN4)C3)nn1)C2` (stereo not shown) [Compound 566, 6-(6-(1,7-diazaspiro[4.4]nonan-7-yl)pyridazin-3-yl)-3-(2,5-dimethyl-2H-1,2,3-triazol-4-yl)-6,7-dihydro-5H-pyrrolo[3,4-b]pyridin-5-one] were, in that order, 133% and 60%.
For `Cc1nn(C)cc1-c1cnc2c(c1)C(=O)N(c1ccc(NC3CC(C)(C)NC(C)(C)C3)nn1)C2` [Compound 207, 3-(1,3-dimethyl-1H-pyrazol-4-yl)-6-(6-((2,2,6,6-tetramethylpiperidin-4-yl)amino)pyridazin-3-yl)-6,7-dihydro-5H-pyrrolo[3,4-b]pyridin-5-one], the EC50 (usually the concentration giving half of the maximal effect) was around 3050 nM, the mrna remaining at 1 µM stood at 108% and the mrna remaining at 10 µM came out at 18%.
Regarding `Cn1ncc(-c2cnc3c(c2)C(=O)N(c2ccc(OC4CC(C)(C)NC(C)(C)C4)nn2)C3)n1` [Compound 191, 3-(2-methyl-2H-1,2,3-triazol-4-yl)-6-(6-((2,2,6,6-tetramethylpiperidin-4-yl)oxy)pyridazin-3-yl)-6,7-dihydro-5H-pyrrolo[3,4-b]pyridin-5-one], the mrna remaining at 1 µM worked out at 45% and the mrna remaining at 10 µM was found to be 17%.

The values above are taken from US20260315464A1, “COMPOSITIONS, METHODS, AND SYSTEMS FOR MODULATING SPLICING OF MSH3” (REVIR THERAPEUTICS, INC., priority 2023, published 2026).
